These results are taken from the SangsterLogP compilation.

The term logP denotes a log measure of how a compound divides between an organic and an aqueous phase. A lower logP goes with a more hydrophilic compound. Molecule `C#CCCCCC` returned a logP of 3.32.
`CCCCCCCCCCc1ccccc1` gave a logP of 7.4.
For the molecule `CCCCC(=O)OCC`, the logP was 2.3.
The molecule `CCC(C)(C)CC` showed a logP of 5.19.
In turn, `C#CCCCCCC` registered a lipophilicity (logP) of 3.92.
Take `CCCI`: the logP was 2.54.
In turn, `ClCCCCCl` displayed a logP of 2.24.
`CCCOC(=O)CCC`: the log partition coefficient (logP) worked out at 2.15.
As for `CCCC(=O)OCC`, the figure is 1.71; as for `CCCCCI`, 3.62.
For `CCCCCCCCCCBr`, the lipophilicity (logP) turned out to be 6.
In the case of `CC1CCCO1` (centres undefined) it was 1.25; in that of `CCC(=O)OC(C)C`, 1.57.
As for `CC(C)CCl`, the log partition coefficient (logP) is 2.39.
In the case of `C#CCC` it was 1.46.
In turn, `CCCCC(=O)CCCC` had a lipophilicity (logP) of 2.88.
In the case of `CCCCOC(=O)CCCC` it was 3.36.
As for `CCOC(=O)C(C)C`, the figure is 1.55; as for `CC(C)C(C)(C)O`, 1.48; as for `CC(=O)OC(C)C`, 1.02.
In the case of `CCCCCCCCCl` it was 4.73.
Take `CCCCCC(=O)OC`: the log partition coefficient (logP) turned out to be 2.42.
Molecule `CCCCCCl` registered a log partition coefficient (logP) of 3.11.
In the case of `CCCCCCCCC` it was 5.65.
In the case of `C#CCCCCCCC` it was 4.51; in that of `CC(C)CBr`, 2.53; in that of `C=CCCC`, 2.8.
`C=CCC=CC` had a logP of 3.16.
In turn, `CCOC=O` displayed a logP of 0.27.
As for `OC1CCCCCCC1`, the figure is 2.39; as for `CCCCCCCCCCCCCC`, 8.
As for `CCC(C)(C)c1ccc(O)cc1`, the figure is 3.83; as for `CCCC(=O)CCC`, 2.04.
Molecule `CC(C)Br` had a logP of 2.1. This logP and that of the molecule before are within 0.2 log units of each other.
Regarding `CCCC(C)(C)O`, the logP came out at 1.53.
For `CCCCCCCl`, the logP was determined as 3.66.
As for `CCCOC(=O)CC`, the figure is 1.71; as for `CCCCF`, 2; as for `CCCCI`, 3.08.
As for `OC1CCCCCC1`, the figure is 1.83; as for `CCCCCCI`, 4.16.
For `CCN1CCCCC1`, the lipophilicity (logP) was found to be 1.88.
For the molecule `CCCCCCCCC(=O)OC`, the logP turned out to be 3.87.
In the case of `ClCC(Cl)(Cl)Cl` it was 2.66.
